Assay results as given in US5039684A, “Tetrazole amide derivatives of heterocyclic alkenyl acid and their use as antiallergic substances” (Valeas S. p. A., priority 1989, dated 1991).
Where a name gives a salt, the structure may show the parent alone.

Experiments:
[1] = test system: passive cutaneous anaphylaxis; assay: PCA test on the rat, intravenous administration just before challenge with antigen; format: in vivo, rat (male Sprague Dawley); conditions: for inhibition in vivo at 1 mg/kg / inhibition in vivo at 3 mg/kg / inhibition in vivo at 10 mg/kg / ED50 / inhibition in vivo at 0.3 mg/kg / inhibition in vivo at 30 mg/kg: Rattus norvegicus, iv; for inhibition in vivo at 1 mg/kg / inhibition in vivo at 0.3 mg/kg: read-out: inhibition (%); for ED50: read-out: ED50 (conf. lim) P = 0.05
Method: (§1) The serum, obtained from rats actively sensitized with ovalbumin (antigen) and suitably diluted, was injected intradermically into the shaven back of male Sprague Dawley rats (2 wheals per rat).
(§2) The rats were treated intravenously after 24 hours with a solution of ovalbumin and Evans blue. Thirty minutes later they were killed and the diameter and intensity of the blue ring formed at the site of the intradermic injection were measured.
(§3) For each treated group (5 per group) the % inhibition was then calculated with respect to the control group.
The pharmacological screening was effected by administering the compounds of the present invention intravenously and orally.
(§4) For intravenous administration (2 ml/kg), those compounds in which R1 =H (see formula I) were dissolved in an aqueous 1% NaHCO3 solution whereas for oral administration (4 ml/Kg) they were either suspended in 0.5% carboxymethylcellulose or dissolved in an aqueous 3% NaHCO3 solution.

[2] = test system: passive cutaneous anaphylaxis; assay: PCA test on the rat, oral administration before challenge with antigen; format: in vivo, rat (male Sprague Dawley); conditions: for inhibition in vivo at 10 mg/kg / inhibition in vivo at 30 mg/kg / inhibition in vivo at 3 mg/kg: read-out: inhibition (%); for ED50: 5 min, Table 2, oral administration, read-out: ED50 (conf. lim) P = 0.05; for ED50 OS/ED50 iv: oral 5 minutes before challenge / i.v. immediately before challenge; for inhibition (%): oral
Method: The serum, obtained from rats actively sensitized with ovalbumin (antigen) and suitably diluted, was injected intradermically into the shaven back of male Sprague Dawley rats (2 wheals per rat). The rats were treated intravenously after 24 hours with a solution of ovalbumin and Evans blue. Thirty minutes later they were killed and the diameter and intensity of the blue ring formed at the site of the intradermic injection were measured. […] The pharmacological screening was effected by administering the compounds of the present invention intravenously and orally. For intravenous administration (2 ml/kg), those compounds in which R1 =H (see formula I) were dissolved in an aqueous 1% NaHCO3 solution whereas for oral administration (4 ml/Kg) they were either suspended in 0.5% carboxymethylcellulose or dissolved in an aqueous 3% NaHCO3 solution.

[3] = test system: passive cutaneous anaphylaxis; assay: PCA test on the rat, time response curve after oral administration; format: in vivo, rat (male Sprague Dawley); conditions: Rattus norvegicus, oral; for inhibition in vivo at 30 mg/kg: 30 mg/kg/os, read-out: inhibition %; for inhibition in vivo at 1 mg/kg: 1 mg/kg/os
Method: as §1, §2, §3, §4

[4] = Acute toxicity in the mouse, oral administration; format: in vivo; conditions: mouse, in vivo, po, 1000 mg/kg, oral, 1000 mg/kg/os; read-out: mortality (%EAD)
Method: (§5) Acute toxicity was evaluated in the mouse by administering the compounds orally at scalar doses to a maximum of 1000 mg/kg to evaluate the 50% lethal dose (LD50). The compounds were administered in carboxymethylcellulose (0.5%) in a volume of […] to male mice (Swiss stock) of average weight 20 g.

[5] = test system: mouse; assay: Acute toxicity in the mouse, oral administration; format: in vivo
Method: as §5

[6] = 1 mg/kg, immediately before challenge
[7] = 3 mg/kg, immediately before challenge
[8] = 10 mg/kg, immediately before challenge
[9] = Rattus norvegicus, po, 10 mg/kg, 5 minutes before challenge
[10] = Rattus norvegicus, po, 30 mg/kg, 5 minutes before challenge
[11] = Rattus norvegicus, po, 5 minutes before challenge
[12] = 3 mg/kg, 5 minutes before challenge
[13] = 5 min, 5 minutes before challenge
[14] = 0.25 h, 15 minutes before challenge
[15] = 0.5 h, 30 minutes before challenge
[16] = 1 h, 60 minutes before challenge
[17] = 2 h, 120 minutes before challenge
[18] = Rattus norvegicus, po, 3 mg/kg, 5 minutes before challenge

Row | SMILES | inhibition in vivo at 1 mg/kg [1, 6] [%] | inhibition in vivo at 3 mg/kg [1, 7] [%] | inhibition in vivo at 10 mg/kg [1, 8] [%] | ED50 ([1]; immediately before challenge) [mg/kg] | inhibition in vivo at 10 mg/kg [2, 9] [%] | inhibition in vivo at 30 mg/kg [2, 10] [%] | ED50 [2, 11] [mg/kg] | ED50 OS/ED50 iv [2] | inhibition in vivo at 30 mg/kg [3, 13] [%] | inhibition in vivo at 30 mg/kg [3, 14] [%] | inhibition in vivo at 30 mg/kg [3, 15] [%] | inhibition in vivo at 30 mg/kg [3, 16] [%] | inhibition in vivo at 30 mg/kg [3, 17] [%] | mortality [4] [%] | No. (dead) ([5]; mouse, in vivo, po, 1000 mg/kg) | No. (dead) ([5]; oral, 1000 mg/kg/os, 8 treated) | inhibition in vivo at 0.3 mg/kg ([1]; immediately before challenge) [%] | inhibition in vivo at 3 mg/kg [2, 18] [%] | also measured
1 | Cc1ccc(/C=C/C(=O)Nc2nn[nH]n2)s1 [VAL 47-005, N-1H-tetrazol-5-yl-[3-[5-methyl-(2-thienyl)]] acrylamide trans isomer] | 20.3 | 43.4 | 89.4 | 2.99 | 43.8 | 75.3 | 12.4 | 4.13 | 75.5 | 61.4 | 37.5 | 0 | 11.4 | 0 | 0 | – | – | – | inhibition (%) [2, 12]: 9.6%
2 | Cc1ccc(/C=C/C(=O)Nc2nn[nH]n2)s1 [VAL 47-005Na, N-1H-tetrazol-5-yl-[3-[5-methyl-(2-thienyl)]] acrylamide sodium salt trans isomer] | – | – | – | – | – | – | – | – | – | – | – | – | – | – | – | 0 | – | – | inhibition (%) ([1]; i.v., 1 mg/kg, immediately before challenge): 16.5%; inhibition (%) ([1]; i.v., 3 mg/kg, immediately before challenge): 40.7%; inhibition (%) ([1]; i.v., 10 mg/kg, immediately before challenge): 78.0%; ED50 (conf. lim) P = 0.05 ([1]; i.v., immediately before challenge): 3.74 (2.89-4.85) mg/kg/iv; inhibition (%) [2, 12]: 26.7%; inhibition (%) ([2]; 10 mg/kg, 5 minutes before challenge): 54.7%; inhibition (%) ([2]; 30 mg/kg, 5 minutes before challenge): 65.8%; mortality (%EAD) ([5]; oral, 1000 mg/kg/os): 0%
3 | Cc1ccc(/C=C\C(=O)Nc2nn[nH]n2)s1 [VAL 47-005cis, N-1H-tetrazol-5-yl-[3-[5-methyl-(2-thienyl)]]acrylamide cis isomer] | 54.6 | 82.9 | – | 0.89 | – | – | 0.78 | 0.88 | – | – | – | – | – | 0 | 0 | – | 18 | 94.5 | activity greater than its trans isomer (VAL 47-005) ([1]; i.v., ratio of ED50): about 3 times; inhibition in vivo at 0.3 mg/kg ([2]; Rattus norvegicus, po, 0.3 mg/kg, 5 minutes before challenge): 23.6%; inhibition in vivo at 1 mg/kg ([2]; Rattus norvegicus, po, 1 mg/kg, 5 minutes before challenge): 51.1%; inhibition in vivo at 1 mg/kg [3, 13]: 52.4%; inhibition in vivo at 1 mg/kg [3, 14]: 27.5%; inhibition in vivo at 1 mg/kg [3, 15]: 20.6%; inhibition in vivo at 1 mg/kg [3, 16]: 19.6%; inhibition in vivo at 1 mg/kg [3, 17]: 2.1%; toxicity (in words) ([5]; oral, mouse): do not determine any toxic effect
4 | O=C(/C=C/c1ccc(Br)s1)Nc1nn[nH]n1 [VAL 47-008, N-1H-tetrazol-5-yl-[3-[5-bromo-(2-thienyl)]]-acrylamide trans isomer] | 0 | 8.6 | 31.9 | 12.8 | 26.9 | 43.7 | – | – | 37.7 | 16 | 10.9 | 3.4 | 2.3 | 0 | – | 0 | – | 32.5 | inhibition in vivo at 30 mg/kg ([1]; immediately before challenge): 82.3%
5 | O=C(/C=C/c1ccco1)Nc1nn[nH]n1 [VAL 47-010, N-1H-tetrazol-5-yl-[3-(2-furyl)]-acrylamide trans isomer] | 29 | 40.2 | 84.1 | 3.13 | 35.9 | 80.9 | 12.4 | 3.95 | 51.4 | 44.8 | 21.9 | 6.6 | 18.6 | 25 | 2 | – | – | 9.6 | inhibition in vivo at 30 mg/kg ([1]; immediately before challenge): 95.3%
6 | O=C(/C=C/c1cccnc1)Nc1nn[nH]n1 [VAL 47-017, N-1H-tetrazol-5-yl-[3-(3-pyridyl)]-acrylamide trans isomer] | 71.6 | 93.9 | 100 | 0.36 | 22.8 | 48.3 | – | – | 45 | 7.3 | 1 | 0 | 0 | 0 | – | 0 | 45.7 | 21.7 | –
7 | O=C(/C=C/c1c[nH]c2ccccc12)Nc1nn[nH]n1 [VAL 47-022, N-1H-tetrazol-5-yl-[3-(3-indolyl)]-acrylamide trans isomer] | 43.4 | 97.1 | – | 1.01 | 46.6 | 40.8 | – | – | 62.2 | 52.7 | 33.3 | 19.4 | 8.9 | 0 | – | 0 | 3.9 | 17.8 | –
8 | O=C(/C=C/c1cccs1)Nc1nn[nH]n1 [VAL 47-024, N-1H-tetrazol-5-yl-[3-(2-thienyl)] acrylamide trans isomer] | 18.1 | 64.9 | 100 | 2.29 | 53.8 | 53.3 | – | – | 43.5 | 52.7 | 46.7 | 30.4 | 10.9 | 0 | – | 0 | – | 30.2 | –
9 | O=C(/C=C/c1ccsc1)Nc1nn[nH]n1 [VAL 47-034, N-1H-tetrazol-5-yl-[3-(3-thienyl)]-acrylamide trans isomer] | 1.3 | 48.6 | 63.5 | 4.74 | 0 | 53.4 | – | – | 64.5 | 36 | 41.9 | 6.9 | 0 | 25 | – | 2 | – | 0 | –
10 | O=C(/C=C/c1ccncc1)Nc1nn[nH]n1 [VAL 47-042, N-1H-tetrazol-5-yl-[3-(4-pyridyl)]-acrylamide trans isomer] | 41.7 | 77.8 | – | 1.28 | 5.3 | 21.4 | – | – | 6.3 | 0 | 0.5 | 0 | 0 | 0 | – | 0 | 3.9 | 0 | –
